Results published in patent US20110230481A2, “DERIVATIVES OF TETRABROMOBENZIMIDAZOLE, A PROCESS FOR THE PREPARATION THEREOF, A PHARMACEUTICAL COMPOSITION COMPRISING THE SAME, A METHOD OF USING THE SAME, A METHOD FOR MODULATING OR REGULATING SERINE/THREONINE KINASES, AND SERINE/THREONINE KINASES MODULATING AGENT” (SELVITA S.A., priority 2009, published 2011).

What was measured:
Experiment in all cases: KINOMEscan Max
Format in all cases: binding
CLK1 = CLK1 (Homo sapiens, UniProt P49759); parameters: DNA tag (qPCR read-out); purchased Ambit Kinomescan
CLK1, sequence (P49759 whole entry): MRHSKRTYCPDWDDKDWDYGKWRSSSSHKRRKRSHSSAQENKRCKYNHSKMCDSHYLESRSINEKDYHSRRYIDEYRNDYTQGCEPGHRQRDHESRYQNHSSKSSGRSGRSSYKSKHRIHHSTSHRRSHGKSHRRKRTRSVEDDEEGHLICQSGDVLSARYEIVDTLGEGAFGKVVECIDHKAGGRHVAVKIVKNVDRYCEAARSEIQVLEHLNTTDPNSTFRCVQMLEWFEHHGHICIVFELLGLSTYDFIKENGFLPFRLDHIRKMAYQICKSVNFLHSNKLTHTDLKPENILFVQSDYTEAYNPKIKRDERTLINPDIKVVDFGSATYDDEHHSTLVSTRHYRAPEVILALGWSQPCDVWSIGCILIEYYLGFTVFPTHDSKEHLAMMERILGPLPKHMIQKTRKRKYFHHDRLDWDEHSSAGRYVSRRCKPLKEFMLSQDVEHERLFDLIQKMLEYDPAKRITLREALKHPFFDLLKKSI
Experimental: (§1) Kinase panel profiling was performed at Ambit Kinomescan (http://www.ambitbio.com/technology/) using the “KINOMEscan™ Max” assay platform, a high-throughput method for screening small molecule compounds against large numbers of human kinases. KINOMEscan™ is based on a competition binding assay that quantitatively measures the ability of a compound to compete with an immobilized, active-site directed ligand. The assay is performed by combining three components: DNA-tagged kinase; immobilized ligand; and a test compound. The ability of the test compound to compete with the immobilized ligand is measured via quantitative PCR of the DNA tag. For a description of Ambit's assay protocol, see Fabian et al. A small molecule-kinase interaction map for clinical kinase inhibitors. Nat. Biotechnol. 23, 329-336 (2005).

PIM3 = PIM3 (Homo sapiens, UniProt Q86V86); parameters: DNA tag (qPCR read-out); purchased Ambit Kinomescan
Experimental: as §1

TAK1 = molecular target: T1, TAK1 (Homo sapiens, UniProt O43318)
T1 construct: purchased Ambit (KINOMEscan Max service)
Experimental: as §1

AAK1 = molecular target: T2, AAK1 (Homo sapiens, UniProt Q2M2I8)
T2 construct: purchased Ambit Kinomescan (contract screening)
Experimental: as §1

[1] = molecular target: T3, RSK1(Kin.Dom.1-N-terminal) (Homo sapiens, UniProt Q15418)
T3 construct: RSK1(Kin.Dom.1-N-terminal); DNA tag (qPCR read-out)
T3 sequence (Q15418 62-321 limits assumed): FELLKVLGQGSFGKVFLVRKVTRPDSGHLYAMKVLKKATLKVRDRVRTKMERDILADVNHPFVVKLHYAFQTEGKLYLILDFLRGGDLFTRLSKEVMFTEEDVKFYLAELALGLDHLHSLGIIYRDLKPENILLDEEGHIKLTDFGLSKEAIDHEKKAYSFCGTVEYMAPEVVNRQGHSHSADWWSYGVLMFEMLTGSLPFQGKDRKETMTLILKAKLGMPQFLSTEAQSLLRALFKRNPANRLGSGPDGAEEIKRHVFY
Experimental: as §1

MRCKA = MRCKA (Homo sapiens, UniProt Q5VT25)
MRCKA, sequence (Q5VT25 whole entry): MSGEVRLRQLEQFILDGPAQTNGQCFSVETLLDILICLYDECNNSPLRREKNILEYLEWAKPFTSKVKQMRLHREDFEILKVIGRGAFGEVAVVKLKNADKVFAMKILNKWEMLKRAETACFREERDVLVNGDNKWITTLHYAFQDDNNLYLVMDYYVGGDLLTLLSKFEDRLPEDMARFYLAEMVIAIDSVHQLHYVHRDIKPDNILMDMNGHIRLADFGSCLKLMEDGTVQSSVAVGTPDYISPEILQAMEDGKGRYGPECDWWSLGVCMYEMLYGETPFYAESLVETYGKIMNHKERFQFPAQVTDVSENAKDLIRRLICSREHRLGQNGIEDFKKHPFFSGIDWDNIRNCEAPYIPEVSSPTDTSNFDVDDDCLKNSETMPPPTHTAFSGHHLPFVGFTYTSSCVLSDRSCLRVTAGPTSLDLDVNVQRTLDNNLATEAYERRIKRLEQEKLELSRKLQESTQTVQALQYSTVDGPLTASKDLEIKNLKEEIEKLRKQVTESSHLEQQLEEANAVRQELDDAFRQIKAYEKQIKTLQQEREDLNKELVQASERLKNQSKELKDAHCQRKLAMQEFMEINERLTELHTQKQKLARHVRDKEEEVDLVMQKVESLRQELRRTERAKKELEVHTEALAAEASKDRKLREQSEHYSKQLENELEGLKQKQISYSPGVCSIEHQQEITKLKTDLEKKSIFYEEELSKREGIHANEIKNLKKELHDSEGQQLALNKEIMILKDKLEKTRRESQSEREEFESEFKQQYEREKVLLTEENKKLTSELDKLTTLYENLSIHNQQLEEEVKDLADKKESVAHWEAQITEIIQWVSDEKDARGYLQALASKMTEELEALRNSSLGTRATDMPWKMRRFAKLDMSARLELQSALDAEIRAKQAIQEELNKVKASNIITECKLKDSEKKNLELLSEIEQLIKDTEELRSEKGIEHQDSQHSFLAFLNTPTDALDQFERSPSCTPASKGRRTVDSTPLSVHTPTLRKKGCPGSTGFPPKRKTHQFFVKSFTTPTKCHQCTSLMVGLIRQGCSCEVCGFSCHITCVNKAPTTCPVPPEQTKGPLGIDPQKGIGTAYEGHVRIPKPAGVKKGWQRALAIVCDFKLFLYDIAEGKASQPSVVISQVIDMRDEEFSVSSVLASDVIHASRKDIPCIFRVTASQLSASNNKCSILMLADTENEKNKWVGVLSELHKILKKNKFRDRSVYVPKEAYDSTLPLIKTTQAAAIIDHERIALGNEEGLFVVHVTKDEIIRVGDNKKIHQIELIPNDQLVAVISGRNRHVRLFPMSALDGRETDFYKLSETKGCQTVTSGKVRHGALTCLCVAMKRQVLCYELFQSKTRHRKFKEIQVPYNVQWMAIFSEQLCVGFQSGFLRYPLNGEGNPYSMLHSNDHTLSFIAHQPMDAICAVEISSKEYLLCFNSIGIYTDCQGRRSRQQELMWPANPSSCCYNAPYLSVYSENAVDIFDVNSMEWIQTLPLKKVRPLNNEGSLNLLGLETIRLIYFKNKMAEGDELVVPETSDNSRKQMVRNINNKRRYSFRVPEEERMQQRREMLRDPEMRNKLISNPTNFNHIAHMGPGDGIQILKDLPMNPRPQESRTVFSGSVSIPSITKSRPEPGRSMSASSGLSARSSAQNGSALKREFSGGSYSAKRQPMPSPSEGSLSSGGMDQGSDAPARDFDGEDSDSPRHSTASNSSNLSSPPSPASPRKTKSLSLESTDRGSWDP
Experimental: as §1

RAF1 = molecular target: T4, RAF1 (Homo sapiens, UniProt P04049)
T4 construct: DNA tag (qPCR read-out)
Experimental: as §1

NEK5 = NEK5 (Homo sapiens, UniProt Q6P3R8)
Experimental: as §1

EPHB1 = molecular target: T5, EPHB1 (Homo sapiens, UniProt P54762)
T5 construct: purchased Ambit (KINOMEscan Max panel service)
Experimental: as §1

FES = molecular target: T6, FES (Homo sapiens, UniProt P07332)
T6 construct: purchased Ambit Kinomescan (contract panel, KINOMEscan Max)
Experimental: as §1

MEK1 = molecular target: T7, MEK1 (Homo sapiens, UniProt Q02750)
T7 construct: purchased Ambit Kinomescan (contract panel)
Experimental: as §1

TAOK3 = molecular target: T8, TAOK3 (Homo sapiens, UniProt Q9H2K8)
T8 construct: purchased Ambit Kinomescan (contract screening service)
Experimental: as §1

LZK = molecular target: T9, LZK (Homo sapiens, UniProt O43283); settings: 1 μM
T9 construct: purchased Ambit Kinomescan (contract panel)
T9 sequence (O43283 whole entry): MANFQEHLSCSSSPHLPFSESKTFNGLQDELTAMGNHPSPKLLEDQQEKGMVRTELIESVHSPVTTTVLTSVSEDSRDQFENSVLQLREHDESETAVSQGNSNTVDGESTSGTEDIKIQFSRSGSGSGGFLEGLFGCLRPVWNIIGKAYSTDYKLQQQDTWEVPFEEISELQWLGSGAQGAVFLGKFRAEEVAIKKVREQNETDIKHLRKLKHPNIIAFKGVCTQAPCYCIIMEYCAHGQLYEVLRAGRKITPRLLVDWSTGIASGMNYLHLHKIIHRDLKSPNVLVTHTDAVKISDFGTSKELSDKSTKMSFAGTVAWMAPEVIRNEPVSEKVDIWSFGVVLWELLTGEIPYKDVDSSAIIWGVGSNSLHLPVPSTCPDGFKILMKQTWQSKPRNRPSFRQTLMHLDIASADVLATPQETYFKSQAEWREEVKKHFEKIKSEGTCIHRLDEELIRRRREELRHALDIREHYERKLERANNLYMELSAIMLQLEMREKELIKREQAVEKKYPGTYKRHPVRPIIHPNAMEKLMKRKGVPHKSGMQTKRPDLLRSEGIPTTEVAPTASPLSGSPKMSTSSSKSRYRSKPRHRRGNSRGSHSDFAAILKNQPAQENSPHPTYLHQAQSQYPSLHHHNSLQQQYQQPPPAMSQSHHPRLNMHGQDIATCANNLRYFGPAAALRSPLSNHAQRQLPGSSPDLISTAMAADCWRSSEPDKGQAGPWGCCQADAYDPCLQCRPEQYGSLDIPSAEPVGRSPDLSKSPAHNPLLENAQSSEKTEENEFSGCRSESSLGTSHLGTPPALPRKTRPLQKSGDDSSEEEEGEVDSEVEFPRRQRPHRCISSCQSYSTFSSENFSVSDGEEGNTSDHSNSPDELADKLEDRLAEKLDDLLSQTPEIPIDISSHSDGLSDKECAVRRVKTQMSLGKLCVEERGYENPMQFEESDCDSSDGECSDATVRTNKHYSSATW
Experimental: as §1

DYRK1A = molecular target: T10, DYRK1A (Homo sapiens, UniProt Q13627)
T10 construct: DNA tag (qPCR read-out); purchased Ambit Kinomescan
Experimental: as §1

BRAF(V600E) = BRAF(V600E) (Homo sapiens, UniProt P15056, V600E)
Experimental: as §1

CAMK1 = molecular target: T11, CAMK1 (Homo sapiens, UniProt Q14012)
T11 construct: purchased Ambit Kinomescan (contract screening)
T11 sequence (Q14012 whole entry): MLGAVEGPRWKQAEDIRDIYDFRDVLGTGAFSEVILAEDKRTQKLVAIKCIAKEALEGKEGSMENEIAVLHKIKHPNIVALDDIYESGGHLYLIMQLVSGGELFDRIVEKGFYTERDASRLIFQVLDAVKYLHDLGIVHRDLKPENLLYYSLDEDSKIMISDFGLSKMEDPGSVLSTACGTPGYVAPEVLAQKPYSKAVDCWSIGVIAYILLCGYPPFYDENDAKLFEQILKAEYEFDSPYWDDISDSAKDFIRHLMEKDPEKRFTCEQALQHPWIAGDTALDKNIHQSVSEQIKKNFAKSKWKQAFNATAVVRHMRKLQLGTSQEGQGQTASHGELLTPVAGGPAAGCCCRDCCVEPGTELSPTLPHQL
Experimental: as §1

[2] = molecular target: T12, EGFR(L747-E749del. A750P) (Homo sapiens, UniProt P00533, A750P/DEL747-749); settings: 1 μM
T12 construct: purchased Ambit (KINOMEscan Max panel service)
Experimental: as §1

MYLK2 = molecular target: T13, MYLK2 (Homo sapiens, UniProt Q9H1R3)
T13 construct: purchased Ambit (KINOMEscan Max service)
Experimental: as §1

HIPK3 = molecular target: T14, HIPK3 (Homo sapiens, UniProt Q9H422)
T14 construct: DNA tag (qPCR read-out); purchased Ambit Kinomescan
Experimental: as §1

CASK = CASK (Homo sapiens, UniProt O14936)
Experimental: as §1

PFTAIRE2 = PFTAIRE2 (Homo sapiens, UniProt Q96Q40)
Experimental: as §1

PIP5K2B = molecular target: T15, PIP5K2B (Homo sapiens, UniProt P78356)
T15 construct: purchased Ambit Kinomescan (contract screening)
Experimental: as §1

SRPK3 = molecular target: T16, SRPK3 (Homo sapiens, UniProt Q9UPE1)
T16 construct: DNA tag (qPCR read-out)
Experimental: as §1

CAMK1G = molecular target: T17, CAMK1G (Homo sapiens, UniProt Q96NX5)
T17 construct: DNA tag (qPCR label); purchased Ambit Kinomescan (contract screening)
Experimental: as §1

PRKD3 = molecular target: T18, PRKD3 (Homo sapiens, UniProt O94806)
T18 construct: DNA tag (qPCR read-out)
T18 sequence (O94806 whole entry): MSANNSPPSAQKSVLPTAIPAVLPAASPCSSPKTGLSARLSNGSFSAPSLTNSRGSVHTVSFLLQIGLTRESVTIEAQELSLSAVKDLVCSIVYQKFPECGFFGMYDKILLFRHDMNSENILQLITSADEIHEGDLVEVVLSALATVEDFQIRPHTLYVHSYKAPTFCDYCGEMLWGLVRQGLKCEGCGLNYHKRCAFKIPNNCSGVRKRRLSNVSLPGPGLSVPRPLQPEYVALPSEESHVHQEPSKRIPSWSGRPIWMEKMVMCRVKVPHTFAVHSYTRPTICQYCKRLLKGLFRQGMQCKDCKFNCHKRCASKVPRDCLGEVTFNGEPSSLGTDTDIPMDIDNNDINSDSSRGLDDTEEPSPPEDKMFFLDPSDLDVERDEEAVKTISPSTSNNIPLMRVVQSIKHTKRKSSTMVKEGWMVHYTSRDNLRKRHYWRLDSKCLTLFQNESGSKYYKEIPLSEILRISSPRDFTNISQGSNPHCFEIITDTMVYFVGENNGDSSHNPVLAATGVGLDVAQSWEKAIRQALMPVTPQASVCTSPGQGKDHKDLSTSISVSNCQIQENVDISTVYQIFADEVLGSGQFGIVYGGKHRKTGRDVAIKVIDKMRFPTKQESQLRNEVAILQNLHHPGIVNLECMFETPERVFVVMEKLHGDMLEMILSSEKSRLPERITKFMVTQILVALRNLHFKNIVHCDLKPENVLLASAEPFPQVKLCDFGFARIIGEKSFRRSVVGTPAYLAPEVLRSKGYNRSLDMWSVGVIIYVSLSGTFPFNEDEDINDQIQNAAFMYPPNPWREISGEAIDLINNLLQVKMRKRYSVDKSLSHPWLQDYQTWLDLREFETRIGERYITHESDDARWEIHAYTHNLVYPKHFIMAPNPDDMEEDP
Experimental: as §1

NEK2 = NEK2 (Homo sapiens, UniProt P51955)
Experimental: as §1

LYN = molecular target: T19, LYN (Homo sapiens, UniProt P07948)
T19 construct: purchased Ambit Kinomescan (contract panel)
Experimental: as §1

DAPK3 = DAPK3 (Homo sapiens, UniProt O43293)
Experimental: as §1

MLK1 = MLK1 (Homo sapiens, UniProt P80192)
Experimental: as §1

EGFR = molecular target: T20, EGFR (Homo sapiens, UniProt P00533); settings: 1 μM
T20 construct: purchased Ambit (KINOMEscan Max panel service)
Experimental: as §1

CLK2 = molecular target: T21, CLK2 (Homo sapiens, UniProt P49760)
T21 construct: DNA tag (qPCR read-out)
Experimental: as §1

STK36 = molecular target: T22, STK36 (Homo sapiens, UniProt Q9NRP7)
T22 construct: DNA tag (qPCR read-out)
Experimental: as §1

TGFBR1 = molecular target: T23, TGFBR1 (Homo sapiens, UniProt P36897)
T23 construct: purchased Ambit Kinomescan (contract screening service)
Experimental: as §1

Compound: NCCCNc1nc2c(Br)c(Br)c(Br)c(Br)c2[nH]1 [Compound 11, N-(3-aminopropyl)-4,5,6,7-tetrabromo-1H-benzo[d]imidazol-2-amine]
- remaining binding at 1 µM (CLK1): 5.1%
- remaining binding at 1 µM (PIM3): 5.2%
- remaining binding at 1 µM (TAK1): 65%
- remaining binding at 1 µM (AAK1): 97%
- remaining binding at 1 µM [1]: 100%
- remaining binding at 1 µM (MRCKA): 100%
- remaining binding at 1 µM (RAF1): 86%
- remaining binding at 1 µM (NEK5): 100%
- remaining binding at 1 µM (EPHB1): 100%
- remaining binding at 1 µM (FES): 100%
- remaining binding at 1 µM (MEK1): 100%
- remaining binding at 1 µM (TAOK3): 100%
- % binding (LZK): 100%
- remaining binding at 1 µM (DYRK1A): 2.6%
- remaining binding at 1 µM (BRAF(V600E)): 96%
- remaining binding at 1 µM (CAMK1): 98%
- % binding [2]: 100%
- remaining binding at 1 µM (MYLK2): 86%
- remaining binding at 1 µM (HIPK3): 1.5%
- remaining binding at 1 µM (CASK): 94%
- remaining binding at 1 µM (PFTAIRE2): 73%
- remaining binding at 1 µM (PIP5K2B): 97%
- remaining binding at 1 µM (SRPK3): 100%
- remaining binding at 1 µM (CAMK1G): 100%
- remaining binding at 1 µM (PRKD3): 27%
- remaining binding at 1 µM (NEK2): 99%
- remaining binding at 1 µM (LYN): 100%
- remaining binding at 1 µM (DAPK3): 73%
- remaining binding at 1 µM (MLK1): 100%
- % binding (EGFR): 100%
- remaining binding at 1 µM (CLK2): 31%
- remaining binding at 1 µM (STK36): 100%
- remaining binding at 1 µM (TGFBR1): 100%
